Reference: patent publication US5733912A, “7A-heterocycle substituted hexahydro-1H-pyrrolizine compounds useful in controlling chemical synaptic transmission” (Abbott Laboratories, priority 1997, dated 1998)
Structures can show the parent of a compound that is named as a salt.

Columns and labels:
[1] = test system: neuronal nicotinic acetylcholine receptors; assay: 86Rb+ efflux assay in IMR-32 human neuroblastoma cells (activation or inhibition of neuronal nicotinic acetylcholine receptors); format: cell-based; conditions: for IMR-32 % response (conc.): relative to the response elicited by 100 μM (S)-nicotine; for IMR-32 % Inhibition (conc.): inhibition of the efflux elicited by 100 μM (S)-nicotine
Description: Cells of the IMR-32 human neuroblastoma clonal cell line (ATCC, Rockville, Md.) were maintained in a log phase of growth according to established procedures (Lukas, 1993). Experimental cells were seeded at a density of 500,000 cells/mL into a 24-well tissue culture dish. Plated cells were allowed to proliferate for at least 48 hours before loading with 2 μCi/mL of ^86 Rb^+ (35 Ci/mmol) overnight at 37° C. The ^86 Rb^+ efflux assays were performed according to previously published protocols (Lukas, R. J., J. Pharmacol. Exp. Ther., 265: 294-302, 1993) except serum-free Dulbecco's Modified Eagle's Medium was used during the ^86 Rb^+ loading, rinsing, and agonist-inducedefflux steps.
Responses (reported as percent relative to the response elicited by 100 μM (S)-nicotine) are shown for the indicated concentrations of selected compounds of the invention. The inhibition data (given for other selected compounds) reflect inhibition of the efflux elicited by 100 μM (S)-nicotine at the indicated concentration. […] This finding is in agreement with the results of others who have linked dopamine release, which is dependent upon the ion flux in synaptic transmission, to binding at nicotinic receptors (cf., for example, Lippiello and Caldwell, U.S. Pat. No. 5,242,935, issued Sep. 7, 1993; Caldwell and Lippiello, U.S. Pat. No. 5,248,690, issued Sep. 28, 1993; and Wonnacott et al., Prog. Brain Res., 79: 157-163 (1989)).

[2] = biological target: neuronal nicotinic acetylcholine receptors; assay: Displacement of [3H]-cytisine from nicotinic acetylcholine receptors, crude synaptic membrane preparations from whole rat brain; conditions: [3H]-cytisine 1.25 nM, whole rat brain membranes, 60 minutes at 4° C.; IC50 converted to Ki by Cheng and Prusoff; read-out: Binding to Neuronal Nicotinic Acetylcholine Receptors (Binding)
Description: For the purpose of identifying compounds as cholinergic agents which are capable of interacting with nicotinic acetylcholine receptors in the brain, a ligand-receptor binding assay was carried out as the initial screen. Compounds of the present invention were effective at interacting with neuronal nicotinic acetylcholine receptors as assayed for their ability to displace radioligand from neuronal nicotinic acetylcholine channel receptors labeled with [^3 H]-cytisine ([^3 H]-CYT).
Displacement of [^3 H]-CYT from nicotinic acetylcholine receptors was determined using crude synaptic membrane preparations from whole rat brain (Pabreza et al., Molecular Pharmacol., 1990, 39: 9). Washed membranes were stored at -80° C. prior to use. Frozen aliquots were slowly thawed and resuspended in 20 volumes of buffer (containing: 120 mM NaCl, 5 mM KCl, 2 mM MgCl2, 2 mM CaCl2 and 50 mM Tris-Cl, pH 7.4 @4° C.). After centrifuging at 20,000×g for 15 minutes, the pellets were resuspended in 30 volumes of buffer. Homogenate (containing 125-150 μg protein) was added to triplicate tubes containing concentrations of test compound and [^3 H]-CYT (1.25 nM) in a final volume of 500 μL. Samples were incubated for 60 minutes at 4° C., then rapidly filtered through Whatman GF/B filters presoaked in 0.5% polyethylimine using 3×4 mL of ice-cold buffer. The filters are counted in 4 mL of Ecolume® (ICN). Nonspecific binding was determined in the presence of 10 μM (-)-nicotine and values were expressed as a percentage of total binding.

| Compound | IMR-32 % response (conc.) ([1]; 10 μM) [%] | Ki [2] [nM] | IMR-32 % response (conc.) ([1]; 1 μM) [%] | IMR-32 % response (conc.) ([1]; 100 μM) [%] | IMR-32 % Inhibition (conc.) ([1]; 10 μM) [%] |
| --- | --- | --- | --- | --- | --- |
| Cc1cc(C23CCCN2CCC3)on1.Cl [Example 1, 7a-(3-methyl-5-isoxazolyl)-hexahydro-1H-pyrrolizine hydrochloride] | 110 | 0.97 | – | – | – |
| Cc1cc(C23CCCN2CCC3)[nH]n1 [Example 2, 7a-(1H-3-methyl-5-pyrazolyl)-hexahydro-1H-pyrrolizine dihydrochloride] | – | 70 | – | – | – |
| Cl.c1cncc(C23CCCN2CCC3)c1 [Example 3, 7a-(3-pyridinyl)-hexahydro-1H-pyrrolizine hydrochloride] | 71 | 0.38 | – | – | – |
| Cl.Cl.c1ccc2ncc(C34CCCN3CCC4)cc2c1 [Example 4, 7a-(3-quinolinyl)-hexahydro-1H-pyrrolizine dihydrochloride] | 40 | 4.3 | – | – | – |
| Cl.Clc1ccc(C23CCCN2CCC3)cn1 [Example 5, 7a-(6-chloro-3-pyridinyl)-hexahydro-1H-pyrrolizine hydrochloride] | – | 0.1 | 82 | – | – |
| Fc1ncccc1C12CCCN1CCC2 [Example 6, 7a-(2-fluoro-3-pyridinyl)-hexahydro-1H-pyrrolizine hydrochloride salt] | – | 5.7 | – | – | – |
| Clc1ncccc1C12CCCN1CCC2 [Example 7, 7a-(2-chloro-3-pyridinyl)-hexahydro-1H-pyrrolizine hydrochloride] | – | 436 | – | – | – |
| Cl.Clc1cc(C23CCCN2CCC3)cnc1Cl [Example 8, 7a-(5,6-dichloro-3-pyridinyl)-hexahydro-1H-pyrrolizine hydrochloride] | – | 0.055 | 71 | – | – |
| Cl.c1ncc(C23CCCN2CCC3)cn1 [Example 9, 7a-(5-pyrimidinyl)-hexahydro-1H-pyrrolizine hydrochloride] | – | 3.7 | – | 39 | – |
| Cl.Fc1ccc(C23CCCN2CCC3)c(F)n1 [Example 10, 7a-(2,6-difluoro-3-pyridinyl)-hexahydro-1H-pyrrolizine hydrochloride] | 13 | 2.9 | – | – | 12 |
| Clc1ccc(C23CCCN2CCC3)c(Cl)n1 [Example 11, 7a-(2,6-dichloro-3-pyridinyl)-hexahydro-1H-pyrrolizine hydrochloride salt] | – | 1420 | – | – | – |
| Cl.Fc1ccc(C23CCCN2CCC3)cn1 [Example 12, 7a-(6-fluoro-3-pyridinyl)-hexahydro-1H-pyrrolizine hydrochloride salt] | 93 | 0.27 | – | – | – |
| CCc1cc(C23CCCN2CCC3)on1.Cl [Example 13, 7a-(3-ethyl-5-isoxazolyl)-hexahydro-1H-pyrrolizine hydrochloride salt] | – | 1.4 | – | 108 | – |
| CCCc1cc(C23CCCN2CCC3)on1.Cl [Example 14, 7a-(3-propyl-5-isoxazolyl)-hexahydro-1H-pyrrolizine hydrochloride salt] | – | 1.7 | – | 74 | – |
| c1ccc(Cc2cc(C34CCCN3CCC4)on2)cc1 [Example 15, 7a-(3-benzyl-5-isoxazolyl)-hexahydro-1H-pyrrolizine hydrochloride salt] | – | 4 | – | – | – |
| Cl.Oc1cncc(C23CCCN2CCC3)c1 [Example 16, 7a-(3-hydroxy-5-pyridinyl)-hexahydro-1H-pyrrolizine hydrochloride salt] | – | 1.4 | – | 53 | – |
| c1ccc(COc2cncc(C34CCCN3CCC4)c2)cc1 [Example 16b, 7a-(3-benzyloxy-5-pyridinyl)-hexahydro-1H-pyrrolizine] | – | 0.27 | – | – | – |
| Brc1cncc(C23CCCN2CCC3)c1.Cl [Example 17, 7a-(5-bromo-3-pyridinyl)-hexahydro-1H-pyrrolizine hydrochloride salt] | 41 | 0.61 | – | – | – |
| Cc1cc(C23CCCN2CCC3)cnc1F.Cl [Example 18, 7a-(6-fluoro-5-methyl-3-pyridinyl)hexahydro-1H-pyrrolizine hydrochloride salt] | 66 | 0.11 | – | – | – |
| Cc1cc(C23CCCN2CCC3)cnc1Cl.Cl [Example 19, 7a-(6-chloro-5-methyl-3-pyridinyl)-hexahydro-1H-pyrrolizine hydrochloride salt] | – | 0.05 | 91 | – | – |
| Cc1ccc(C23CCCN2CCC3)cn1.Cl [Example 20, 7a-(6-methyl-3-pyridinyl)-hexahydro-1H-pyrrolizine hydrochloride salt] | – | 0.56 | 98 | – | – |
| Cc1cncc(C23CCCN2CCC3)c1.Cl [Example 21, 7a-(5-methyl-3-pyridinyl)-hexahydro-1H-pyrrolizine hydrochloride salt] | – | 0.33 | 56 | – | – |
| Cl.Fc1ncc(C23CCCN2CCC3)cc1Br [Example 22, 7a-(5-bromo-6-fluoro-3-pyridinyl)-hexahydro-1H-pyrrolizine hydrochloride salt] | 42 | 0.22 | – | – | – |
| Cl.Fc1ncc(C23CCCN2CCC3)cc1Cl [Example 23, 7a-(5-chloro-6-fluoro-3-pyridinyl)-hexahydro-1H-pyrrolizine hydrochloride salt] | 68 | 0.23 | – | – | – |
| Cc1ccncc1C12CCCN1CCC2.Cl [Example 24, 7a-(4-methyl-3-pyridinyl)-hexahydro-1H-pyrrolizine hydrochloride salt] | – | 72 | – | 0 | 14 |
| c1ccc(-c2cncc(C34CCCN3CCC4)c2)cc1 [Example 25, 7a-(5-phenyl-3-pyridinyl)-hexahydro-1H-pyrrolizine hydrochloride salt] | – | 0.25 | – | – | – |
